# According to ChEMBL document CHEMBL4308841, “Synthesis, in vitro antiproliferative activity, and kinase inhibitory effects of pyrazole-containing diarylureas and diarylamides” (Eur J Med Chem, 2018):
# System: K562
# Experiment: Growth inhibition of human K562 cells assessed as cell growth at 0.01 uM incubated for 48 hrs by sulforhodamine B assay relative to control
# Type: functional
# Conditions: K562, 48 h, read-out: Activity
row,SMILES,growth at 0.01 µM
1,COc1cc(Cl)cc(-c2nn(-c3cccc(NC(=O)Nc4ccc(Cl)c(C(F)(F)F)c4)c3)cc2-c2ccncc2)c1,94%

# System: OVCAR-3
# Experiment: Growth inhibition of human OVCAR3 cells incubated for 48 hrs by sulforhodamine B assay
# Type: functional, cell-based
# Conditions: OVCAR-3, 48 h
row,SMILES,IC50
1,COc1cc(Cl)cc(-c2nn(-c3cccc(NC(=O)Nc4ccc(Cl)c(C(F)(F)F)c4)c3)cc2-c2ccncc2)c1,0.45 µM

# Same assay, conditions: OVCAR-3, 48 h, read-out: GI50
row,SMILES,GI50
1,COc1cc(Cl)cc(-c2nn(-c3cccc(NC(=O)Nc4ccc(Cl)c(C(F)(F)F)c4)c3)cc2-c2ccncc2)c1,0.451 µM

# Same assay, conditions: OVCAR-3, 48 h, read-out: LC50 (the source's name)
row,SMILES,CC50
1,COc1cc(Cl)cc(-c2nn(-c3cccc(NC(=O)Nc4ccc(Cl)c(C(F)(F)F)c4)c3)cc2-c2ccncc2)c1,54.6 µM

# Same assay, conditions: OVCAR-3, 48 h, read-out: TGI
row,SMILES,TGI
1,COc1cc(Cl)cc(-c2nn(-c3cccc(NC(=O)Nc4ccc(Cl)c(C(F)(F)F)c4)c3)cc2-c2ccncc2)c1,25.5 µM

# Same assay, conditions: OVCAR-3, 48 h, read-out: pGI50 (converted)
row,SMILES,GI50
1,COc1cc(Cl)cc(-c2nn(-c3cccc(NC(=O)Nc4ccc(Cl)c(C(F)(F)F)c4)c3)cc2-c2ccncc2)c1,4.47 µM

# Same assay, conditions: OVCAR-3, 48 h, read-out: pLC50 (the source's name) (converted)
row,SMILES,CC50
1,COc1cc(Cl)cc(-c2nn(-c3cccc(NC(=O)Nc4ccc(Cl)c(C(F)(F)F)c4)c3)cc2-c2ccncc2)c1,55 µM

# Same assay, conditions: OVCAR-3, 48 h, read-out: pTGI (converted)
row,SMILES,TGI
1,COc1cc(Cl)cc(-c2nn(-c3cccc(NC(=O)Nc4ccc(Cl)c(C(F)(F)F)c4)c3)cc2-c2ccncc2)c1,28.8 µM

# System: HCT-116
# Experiment: Growth inhibition of human HCT116 cells assessed as cell growth at 1 uM incubated for 48 hrs by sulforhodamine B assay relative to control
# Type: functional
# Conditions: HCT-116, 48 h, read-out: Activity
row,SMILES,growth at 1 µM
1,COc1cc(Cl)cc(-c2nn(-c3cccc(NC(=O)Nc4ccc(Cl)c(C(F)(F)F)c4)c3)cc2-c2ccncc2)c1,38%

# System: Hs-578T
# Experiment: Growth inhibition of human Hs578T cells incubated for 48 hrs by sulforhodamine B assay
# Type: functional, cell-based
# Conditions: read-out: GI50
row,SMILES,GI50
1,COc1cc(Cl)cc(-c2nn(-c3cccc(NC(=O)Nc4ccc(Cl)c(C(F)(F)F)c4)c3)cc2-c2ccncc2)c1,4.29 µM

# Same assay, conditions: read-out: LC50 (the source's name)
row,SMILES,CC50
1,COc1cc(Cl)cc(-c2nn(-c3cccc(NC(=O)Nc4ccc(Cl)c(C(F)(F)F)c4)c3)cc2-c2ccncc2)c1,> 100 µM

# Same assay, conditions: read-out: TGI
row,SMILES,TGI
1,COc1cc(Cl)cc(-c2nn(-c3cccc(NC(=O)Nc4ccc(Cl)c(C(F)(F)F)c4)c3)cc2-c2ccncc2)c1,67.7 µM

# Same assay, conditions: read-out: pGI50 (converted)
row,SMILES,GI50
1,COc1cc(Cl)cc(-c2nn(-c3cccc(NC(=O)Nc4ccc(Cl)c(C(F)(F)F)c4)c3)cc2-c2ccncc2)c1,4.27 µM

# Same assay, conditions: read-out: pLC50 (the source's name) (converted)
row,SMILES,CC50
1,COc1cc(Cl)cc(-c2nn(-c3cccc(NC(=O)Nc4ccc(Cl)c(C(F)(F)F)c4)c3)cc2-c2ccncc2)c1,> 100 µM

# Same assay, conditions: read-out: pTGI (converted)
row,SMILES,TGI
1,COc1cc(Cl)cc(-c2nn(-c3cccc(NC(=O)Nc4ccc(Cl)c(C(F)(F)F)c4)c3)cc2-c2ccncc2)c1,67.6 µM

# System: UACC-62
# Experiment: Growth inhibition of human UACC62 cells assessed as cell growth at 0.1 uM incubated for 48 hrs by sulforhodamine B assay relative to control
# Type: functional
# Conditions: UACC-62, 48 h, read-out: Activity
row,SMILES,growth at 0.1 µM
1,COc1cc(Cl)cc(-c2nn(-c3cccc(NC(=O)Nc4ccc(Cl)c(C(F)(F)F)c4)c3)cc2-c2ccncc2)c1,93%

# System: OVCAR-8
# Experiment: Growth inhibition of human OVCAR8 cells assessed as cell growth at 0.01 uM incubated for 48 hrs by sulforhodamine B assay relative to control
# Type: functional
# Conditions: OVCAR-8, 48 h, read-out: Activity
row,SMILES,growth at 0.01 µM
1,COc1cc(Cl)cc(-c2nn(-c3cccc(NC(=O)Nc4ccc(Cl)c(C(F)(F)F)c4)c3)cc2-c2ccncc2)c1,98%

# System: NCI-H23
# Experiment: Growth inhibition of human NCI-H23 cells assessed as cell growth at 100 uM incubated for 48 hrs by sulforhodamine B assay relative to control
# Type: functional
# Conditions: NCI-H23, 48 h, read-out: Activity
row,SMILES,growth at 100 µM
1,COc1cc(Cl)cc(-c2nn(-c3cccc(NC(=O)Nc4ccc(Cl)c(C(F)(F)F)c4)c3)cc2-c2ccncc2)c1,-50%

# System: SK-MEL-5
# Experiment: Growth inhibition of human SK-MEL-5 cells assessed as cell growth at 0.01 uM incubated for 48 hrs by sulforhodamine B assay relative to control
# Type: functional
# Conditions: SK-MEL-5, 48 h, read-out: Activity
row,SMILES,growth at 0.01 µM
1,COc1cc(Cl)cc(-c2nn(-c3cccc(NC(=O)Nc4ccc(Cl)c(C(F)(F)F)c4)c3)cc2-c2ccncc2)c1,96%

# System: RPMI-8226
# Experiment: Growth inhibition of human RPMI8226 cells incubated for 48 hrs by sulforhodamine B assay
# Type: functional, cell-based
# Conditions: RPMI-8226, 48 h
row,SMILES,IC50
1,COc1cc(Cl)cc(-c2nn(-c3cccc(NC(=O)Nc4ccc(Cl)c(C(F)(F)F)c4)c3)cc2-c2ccncc2)c1,0.4 µM

# Same assay, conditions: RPMI-8226, 48 h, read-out: GI50
row,SMILES,GI50
1,COc1cc(Cl)cc(-c2nn(-c3cccc(NC(=O)Nc4ccc(Cl)c(C(F)(F)F)c4)c3)cc2-c2ccncc2)c1,0.402 µM

# Same assay, conditions: RPMI-8226, 48 h, read-out: LC50 (the source's name)
row,SMILES,CC50
1,COc1cc(Cl)cc(-c2nn(-c3cccc(NC(=O)Nc4ccc(Cl)c(C(F)(F)F)c4)c3)cc2-c2ccncc2)c1,> 100 µM

# Same assay, conditions: RPMI-8226, 48 h, read-out: TGI
row,SMILES,TGI
1,COc1cc(Cl)cc(-c2nn(-c3cccc(NC(=O)Nc4ccc(Cl)c(C(F)(F)F)c4)c3)cc2-c2ccncc2)c1,20.7 µM

# Same assay, conditions: RPMI-8226, 48 h, read-out: pGI50 (converted)
row,SMILES,GI50
1,COc1cc(Cl)cc(-c2nn(-c3cccc(NC(=O)Nc4ccc(Cl)c(C(F)(F)F)c4)c3)cc2-c2ccncc2)c1,0.398 µM

# Same assay, conditions: RPMI-8226, 48 h, read-out: pLC50 (the source's name) (converted)
row,SMILES,CC50
1,COc1cc(Cl)cc(-c2nn(-c3cccc(NC(=O)Nc4ccc(Cl)c(C(F)(F)F)c4)c3)cc2-c2ccncc2)c1,> 100 µM

# Same assay, conditions: RPMI-8226, 48 h, read-out: pTGI (converted)
row,SMILES,TGI
1,COc1cc(Cl)cc(-c2nn(-c3cccc(NC(=O)Nc4ccc(Cl)c(C(F)(F)F)c4)c3)cc2-c2ccncc2)c1,2.09 µM

# System: SF-295
# Experiment: Growth inhibition of human SF295 cells assessed as cell growth at 0.01 uM incubated for 48 hrs by sulforhodamine B assay relative to control
# Type: functional
# Conditions: SF-295, 48 h, read-out: Activity
row,SMILES,growth at 0.01 µM
1,COc1cc(Cl)cc(-c2nn(-c3cccc(NC(=O)Nc4ccc(Cl)c(C(F)(F)F)c4)c3)cc2-c2ccncc2)c1,59%

# System: HL-60(TB)
# Experiment: Growth inhibition of human HL-60(TB) cells assessed as cell growth at 1 uM incubated for 48 hrs by sulforhodamine B assay relative to control
# Type: functional
# Conditions: HL-60, 48 h, read-out: Activity
row,SMILES,growth at 1 µM
1,COc1cc(Cl)cc(-c2nn(-c3cccc(NC(=O)Nc4ccc(Cl)c(C(F)(F)F)c4)c3)cc2-c2ccncc2)c1,72%

# System: Malme-3M
# Experiment: Growth inhibition of human MALME-3M cells assessed as cell growth at 100 uM incubated for 48 hrs by sulforhodamine B assay relative to control
# Type: functional
# Conditions: read-out: Activity
row,SMILES,growth at 100 µM
1,COc1cc(Cl)cc(-c2nn(-c3cccc(NC(=O)Nc4ccc(Cl)c(C(F)(F)F)c4)c3)cc2-c2ccncc2)c1,-35%

# System: SK-MEL-2
# Experiment: Growth inhibition of human SK-MEL-2 cells assessed as cell growth at 10 uM incubated for 48 hrs by sulforhodamine B assay relative to control
# Type: functional
# Conditions: SK-MEL-2, 48 h, read-out: Activity
row,SMILES,growth at 10 µM
1,COc1cc(Cl)cc(-c2nn(-c3cccc(NC(=O)Nc4ccc(Cl)c(C(F)(F)F)c4)c3)cc2-c2ccncc2)c1,-34%
